Earlier results in patent US8097593B1, “Lipid A and other carbohydrate ligand analogs” (Oncothyreon Inc., priority 2002, dated 2012).

Key:
[1] = not given; remark: listed apart in the source

Compound | immunostimulating activities, in words (compared with diphosphoryl Lipid-A (and endotoxin itself)) | times less potent in eliciting toxic and pyrogenic responses (on a molar basis) [times] | experimental log P [1]
monophosphoryl Lipid-A | comparable | 1000 | 
CC(C)(C)C [CC(C)(C)C, 2,2-dimethylpropane] |  |  | 3.11
